≈ marks a conversion by molar mass, not a printed value. Where “and” joins values, the source holds several entries; their conditions need not be identical. Identical values can stand only once.

Common to all, as to experiment: ≥ marks a high value that may be exact or a test limit, other limits are often not marked, values filed in µg/mL are converted to µM
In experiment [1] the test system is Cronobacter sakazakii DPC 6440.
Experiment [2] concerns Listeria monocytogenes LO28.
Experiment [3] relates to Klebsiella pneumoniae ATCC 700603.
Experiment [4] deals with Staphylococcus aureus ATCC 25923.
Experiment [5] relates to Escherichia coli ATCC 25922.
Experiment [6] has as its system Acinetobacter baumannii ATCC 19606.
The test system of another experiment is Escherichia coli BW25113.
For experiment [7], the system named is Escherichia coli BW25113 ΔsbmA.
Experiment [8] deals with Pseudomonas aeruginosa ATCC 27853.

Broadly, the MIC is the lowest concentration found to suppress growth. As to `CC[C@H](C)[C@H](NC(=O)[C@@H](N)Cc1c[nH]c2ccccc12)C(=O)N[C@@H](CCC(N)=O)C(=O)N[C@@H](C)C(=O)N[C@@H](CCCCN)C(=O)N[C@H](C(=O)N[C@@H](CCCCN)C(=O)N[C@H](C(=O)N[C@H](C(=O)N1CCC[C@H]1C(=O)N[C@@H](Cc1ccc(O)cc1)C(=O)N[C@H](C(=O)N[C@@H](CCCN=C(N)N)C(=O)N[C@@H](Cc1ccc(O)cc1)C(=O)N[C@@H](CC(C)C)C(=O)O)C(C)C)[C@@H](C)CC)C(C)C)[C@@H](C)O` [WIQAKTKVIPYVRYL], the MIC was not below 39.1 µM in experiment [1] and 9.77 µM (≈ 18.3 µg/mL) in experiment [2].
Regarding `CC[C@H](C)[C@H](NC(=O)[C@@H](N)Cc1c[nH]c2ccccc12)C(=O)N[C@@H](CCC(N)=O)C(=O)N1CCC[C@H]1C(=O)N[C@@H](C)C(=O)N[C@H](C(=O)N[C@@H](CCCCN)C(=O)N[C@H](C(=O)N[C@H](C(=O)N1CCC[C@H]1C(=O)N[C@@H](Cc1ccc(O)cc1)C(=O)N[C@H](C(=O)N[C@@H](C)C(=O)N[C@@H](Cc1ccc(O)cc1)C(=O)N[C@@H](CC(C)C)C(=O)O)C(C)C)[C@@H](C)CC)C(C)C)[C@@H](C)O` [WIQPATKVIPYVAYL], the MIC in experiment [1] is not below 625 µM; in [2] it was not below 156 µM.
The corresponding values for `CC[C@H](C)[C@H](NC(=O)[C@@H](N)Cc1c[nH]c2ccccc12)C(=O)N[C@@H](CCC(N)=O)C(=O)N1CCC[C@H]1C(=O)N[C@@H](CCCCN)C(=O)N[C@@H](C)C(=O)N[C@@H](CCCCN)C(=O)N[C@H](C(=O)N[C@H](C(=O)N1CCC[C@H]1C(=O)N[C@@H](Cc1ccc(O)cc1)C(=O)N[C@H](C(=O)N[C@@H](CCCN=C(N)N)C(=O)N[C@@H](Cc1ccc(O)cc1)C(=O)N[C@@H](CC(C)C)C(=O)O)C(C)C)[C@@H](C)CC)C(C)C` [WIQPKAKVIPYVRYL] are not below 78.1 µM and 19.5 µM (≈ 36.6 µg/mL).
For `CC[C@H](C)[C@H](NC(=O)[C@@H](N)Cc1c[nH]c2ccccc12)C(=O)N[C@@H](CCC(N)=O)C(=O)N1CCC[C@H]1C(=O)N[C@@H](CCCCN)C(=O)N[C@H](C(=O)N[C@@H](CCCCN)C(=O)N[C@H](C(=O)N[C@H](C(=O)N1CCC[C@H]1C(=O)N[C@@H](Cc1ccc(O)cc1)C(=O)N[C@H](C(=O)N[C@@H](CCCN=C(N)N)C(=O)N[C@@H](Cc1ccc(O)cc1)C(=O)N[C@@H](CC(C)C)C(=O)O)C(C)C)[C@@H](C)CC)C(C)C)[C@@H](C)O` [WIQPKTKVIPYVRYL], the values for the MIC in experiment [1] and in [2] were not below 78.1 µM and not below 39.1 µM, respectively.
In the case of `CC[C@H](C)[C@H](NC(=O)[C@H](CCCN=C(N)N)NC(=O)[C@@H](N)Cc1c[nH]c2ccccc12)C(=O)N[C@@H](CCCN=C(N)N)C(=O)N1CCC[C@H]1C(=O)N[C@@H](CCCN=C(N)N)C(=O)N1CCC[C@H]1C(=O)N1CCC[C@H]1C(=O)N[C@@H](CCCN=C(N)N)C(=O)N[C@@H](CC(C)C)C(=O)N1CCC[C@H]1C(=O)N[C@@H](CCCN=C(N)N)C(=O)N[C@@H](Cc1c[nH]c2ccccc12)C(=O)N[C@@H](CCCN=C(N)N)C(=O)N1CCC[C@H]1C(=O)N[C@@H](CCCN=C(N)N)C(=O)O` [WRIRPRPPRLPRWRPR], the MIC in experiment [3] was 8 µM (≈ 17.6 µg/mL); in experiment [4], more than 64 µM; in experiment [5], 1.5 µM and 2 µM; in experiment [6], 32 µM (≈ 70.3 µg/mL); in the experiment with Escherichia coli BW25113, 2 µM (≈ 4.39 µg/mL); in experiment [7], 16 µM and ≥ 32 µM. Further, the MIC in [8] is more than 64 µM.

The record behind these values is DBAASP.
